Patent publication US7956089B2, “Cyclopropanecarboxylate and pest controlling composition containing the same” (Sumitomo Chemical Company, Limited, priority 2007, dated 2011)

Experiments:
Culex pipiens pallens [1] = test: Test Example 1: topical application of acetone solution to the nota of female imagoes, death rate; format: in vivo; details: 0.015 μg of the test compound per mosquito, 0.005% (w/v) acetone solution, after 24 hours
Method: A 0.005% (w/v) solution of a test compound in acetone was prepared. The nota of 10 female imagoes of Culex pipiens pallens were treated with the acetone solution in an amount of 0.015 μg of the test compound per mosquito. Then, water and feed were given to the test mosquitoes. After 24 hours, the number of dead mosquitoes was counted, and a death rate was calculated (2 repetitions).

Culex pipiens pallens [2] = test: Test Example 2: vapor exposure over treated aluminum dish in an inverted cup, knockdown rate; format: in vivo; details: 0.002% (w/v) acetone solution, drug amount about 2 mg per 1 m^2, female imagos, after 60 minutes
Method: A 0.002% (w/v) solution of a test compound in acetone was prepared. Then, 0.64 ml of the acetone solution was dropped onto the bottom of an aluminum dish having a diameter of 9 cm. Then, acetone was air-dried (drug amount: about 2 mg per 1 m^2). Ten female imagos of Culex pipiens pallens were released in a polyethylene cup (diameter: 9 cm; height: 4.5 cm), and the upper opening portion of the polyethylene cup was covered with a 16 mesh nylon net. Next, the cup was inverted onto the aluminum dish. After 60 minutes, the number of knocked down mosquitoes was counted and a knockdown rate was calculated (2 repetitions). As a result, the knockdown rate of the present compound (1) was 70%.

Row | SMILES | Death rate (%) (Culex pipiens pallens [1]) | knockdown rate (Culex pipiens pallens [2]) [%]
1 | COCc1c(F)c(F)c(COC(=O)[C@@H]2[C@@H](C)C2(C)C)c(F)c1F [Comparative compound (B), 4-methoxymethyl-2,3,5,6-tetrafluorobenzyl (1R)-trans-2,3,3-trimethylcyclopropanecarboxylate, reference compound] | 55 | –
2 | C#CCc1c(F)c(F)c(COC(=O)[C@@H]2[C@@H](C)C2(C)C)c(F)c1F [Present compound (1), 4-(2-propynyl)-2,3,5,6-tetrafluorobenzyl (1R)-trans-2,2,3-trimethylcyclopropanecarboxylate] | 95 | 70
